Source: the supplement of paper PMC10307832

Experiments:
Assay in all cases: relative viability (nuclei count vs DMSO), 5 days (fraction); higher = more cells survive
VX-11e + Foretinib = compound: CC1=CN=C(N=C1C2=CNC(=C2)C(=O)N[C@H](CO)C3=CC(=CC=C3)Cl)NC4=C(C=C(C=C4)F)Cl [VX-11e] + COc1cc2c(Oc3ccc(NC(=O)C4(C(=O)Nc5ccc(F)cc5)CC4)cc3F)ccnc2cc1OCCCN1CCOCC1 [Foretinib] (partner 0.25 µM)
How it was run: (§1)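 Values are medians from duplicate plates. Each reflects relative viability, defined as the nuclei count of treated wells over that of vehicle wells. Lung cancer cell lines in 1536-well plates were pin-tool dosed one day after seeding with one drug alone or with a fixed anchor-drug dose plus five library-drug doses (not always all listed) in √10 steps, then fixed, stained and imaged at 4× after 5 days.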

VX-11e + Alpelisib = compound: CC1=CN=C(N=C1C2=CNC(=C2)C(=O)N[C@H](CO)C3=CC(=CC=C3)Cl)NC4=C(C=C(C=C4)F)Cl [VX-11e] + Cc1nc(NC(=O)N2CCC[C@H]2C(N)=O)sc1-c1ccnc(C(C)(C)C(F)(F)F)c1 [Alpelisib] (partner 2 µM)
How it was run: as §1

VX-11e + Pemetrexed = compound: CC1=CN=C(N=C1C2=CNC(=C2)C(=O)N[C@H](CO)C3=CC(=CC=C3)Cl)NC4=C(C=C(C=C4)F)Cl [VX-11e] + Nc1nc2[nH]cc(CCc3ccc(C(=O)N[C@@H](CCC(=O)O)C(=O)O)cc3)c2c(=O)[nH]1 [Pemetrexed] (partner 0.2 µM)
How it was run: as §1

VX-11e + Olaparib = compound: CC1=CN=C(N=C1C2=CNC(=C2)C(=O)N[C@H](CO)C3=CC(=CC=C3)Cl)NC4=C(C=C(C=C4)F)Cl [VX-11e] + O=C(c1cc(Cc2n[nH]c(=O)c3ccccc23)ccc1F)N1CCN(C(=O)C2CC2)CC1 [Olaparib] (partner 8 µM)
How it was run: as §1

Row | Cell Line | relative viability (VX-11e + Foretinib; first compound 0.04 µM) | relative viability (VX-11e + Foretinib; first compound 0.1265 µM) | relative viability (VX-11e + Foretinib; first compound 0.4 µM) | relative viability (VX-11e + Foretinib; first compound 1.265 µM) | relative viability (VX-11e + Foretinib; first compound 4 µM) | relative viability (VX-11e + Alpelisib; first compound 0.04 µM) | relative viability (VX-11e + Alpelisib; first compound 0.1265 µM) | relative viability (VX-11e + Alpelisib; first compound 1.265 µM) | relative viability (VX-11e + Alpelisib; first compound 4 µM) | relative viability (VX-11e + Pemetrexed; first compound 0.04 µM) | relative viability (VX-11e + Pemetrexed; first compound 0.1265 µM) | relative viability (VX-11e + Pemetrexed; first compound 1.265 µM) | relative viability (VX-11e + Pemetrexed; first compound 4 µM) | relative viability (VX-11e + Olaparib; first compound 0.04 µM) | relative viability (VX-11e + Olaparib; first compound 0.1265 µM) | relative viability (VX-11e + Olaparib; first compound 1.265 µM) | relative viability (VX-11e + Olaparib; first compound 4 µM) | relative viability (VX-11e + Alpelisib; first compound 0.4 µM) | relative viability (VX-11e + Pemetrexed; first compound 0.4 µM) | relative viability (VX-11e + Olaparib; first compound 0.4 µM)
1 | LOU-NH91 | 0.92 | 0.896 | 0.577 | 0.94 | 0.782 | 0.692 | 0.689 | 0.691 | 0.538 | 0.448 | 0.373 | 0.367 | 0.358 | 0.887 | 0.884 | 0.901 | 0.839 | – | – | –
2 | HCC-366 | 1.01 | 0.876 | – | 0.851 | 0.701 | 0.446 | 0.431 | 0.239 | 0.0901 | 0.246 | 0.178 | 0.15 | 0.138 | 0.386 | 0.372 | 0.271 | 0.208 | – | – | –
3 | NCI-H838 | 1.03 | 1.11 | 1.05 | 1.1 | 0.779 | 1.06 | 0.989 | 1.02 | 0.824 | 0.236 | 0.235 | 0.229 | 0.217 | 0.785 | 0.802 | 0.738 | 0.671 | 0.952 | 0.239 | 0.702
4 | NCI-H650 | 1.09 | 1.04 | 1.1 | 0.993 | 1.1 | – | 0.961 | – | 0.876 | 0.997 | 0.903 | 1.05 | 1.11 | 0.512 | 0.417 | 0.486 | 0.537 | 1.14 | 0.984 | 0.466
5 | NCI-H1666 | 0.957 | 0.853 | 0.87 | 0.692 | 0.546 | 0.706 | 1.01 | 0.461 | 0.333 | 0.851 | 0.901 | 0.756 | 0.6 | 0.756 | 0.77 | 0.742 | 0.649 | 0.8 | – | –
6 | NCI-H1915 | 1.12 | 1.08 | 1.16 | 1.13 | 0.791 | 1.08 | 0.973 | 0.978 | 0.652 | 0.484 | 0.509 | 0.381 | 0.388 | 0.277 | 0.23 | 0.225 | 0.231 | 1.08 | 0.477 | 0.305
7 | NCI-H2087 | 1.14 | 1.06 | – | 0.81 | 0.454 | 1.09 | 1.06 | 0.983 | 0.276 | 0.691 | 0.613 | 0.64 | 0.544 | 0.646 | 0.659 | 0.531 | 0.252 | 0.946 | – | –
8 | COR-L23 | 1.1 | 0.939 | 0.964 | 0.749 | 0.373 | 0.913 | 0.742 | 0.379 | 0.17 | 0.236 | 0.196 | 0.217 | 0.179 | 0.445 | 0.463 | 0.491 | 0.207 | 0.669 | 0.213 | 0.486
9 | NCI-H1755 | 0.925 | 0.931 | 0.905 | 0.945 | 0.598 | 0.962 | 0.885 | 0.931 | 0.497 | 0.449 | 0.326 | 0.424 | 0.396 | 0.903 | 0.853 | 0.942 | 0.747 | 0.882 | 0.409 | 0.874
10 | NCI-H460 | 0.872 | 0.984 | 0.896 | 0.872 | 0.189 | 0.49 | 0.359 | 0.0408 | 0.0113 | 0.0706 | 0.0577 | 0.0564 | 0.0528 | 0.427 | 0.429 | 0.315 | 0.236 | 0.39 | 0.0649 | –
11 | COR-L 105 | 1.39 | 1.1 | 0.963 | 0.562 | 0.653 | 0.929 | 0.973 | 0.329 | 0.357 | 1.11 | 0.905 | 0.93 | 0.527 | 0.666 | 0.694 | 0.839 | 0.396 | 0.799 | 0.921 | 0.708
12 | HCC-827 | 1.07 | 1.09 | 1.04 | 1.13 | 0.739 | 1.02 | 1.06 | 1.16 | 0.599 | 0.254 | 0.226 | 0.271 | 0.252 | 0.556 | 0.609 | 0.768 | 0.516 | 0.983 | 0.241 | 0.724
13 | NCI-H2228 | 0.79 | 0.936 | – | 0.482 | 0.275 | 0.631 | 0.922 | 0.548 | 0.232 | 0.337 | 0.371 | 0.311 | 0.183 | 0.681 | 0.631 | 0.417 | 0.21 | 0.715 | 0.363 | 0.362
